Measurements as given in patent US20240376094A2, “SELECTIVE BCL-XL PROTAC COMPOUNDS AND METHODS OF USE” (Les Laboratoires Servier, priority 2021, published 2024).

Columns and labels:
Assay type in all cases: cell-based
MOLT-4 cells [1] = experiment: MOLT-4 cell viability, MTT assay; details: Homo sapiens, MOLT-4, 48 h
Description: The MTT colorimetric assay is based on the mitochondrial reduction of tetrazolium salt by living cells. The viable cell number is proportional to the production of formazan salts, which can be read spectrophotometrically at 540 nm. The CTG luminescent assay (CellTiter GLO, Promega) is based on a reagent which lyses cells and measures total adenosine triphosphate (ATP) content. The viable cell number is proportional to the production of ATP.
MOLT-4 cells were purchased from ATCC and cultivated in RPMI 1640 supplemented with 10% heat inactivated fetal bovine serum, penicillin (100 IU/mi), streptomycin (100 μg/ml) and L-glutamine (2 mM). Cells were cultured at 37° C. in a humidified atmosphere containing 5% […].
For MTT assay, cells were seeded in 96 microwell plates (150 μL per well) and exposed to the compounds for 48 h (3.16 fold serially diluted; 9 concentrations each, triplicates). At the end of incubation time, 15 μL of MTT solution (5 mg/ml) were added per well and the cells were incubated for another 4 h. Then, 100 μL of 10% Sodium Dodecyl Sulfate (SDS)/HCl 10 mM were added per well and the plate was incubated overnight, before measurement of optical density at 540 nm.
IC50, were calculated using standard four-parametric curve fitting. IC50 is defined as the compound concentration at which the MTT or CTG signal is reduced to 50% of that measured for the control. Results shown in Table 14 represent the mean of at least 2 independent experiments.

MOLT-4 cells [2] = experiment: MOLT-4 cell viability, CTG assay; details: Homo sapiens, MOLT-4, 48 h
Summary of the method: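 Viability read as total ATP luminescence (CTG) after 48 h compound treatment, 11 points at 5-fold spacing in triplicate, cells in RPMI 1640/10% FBS. IC50 is the concentration halving signal relative to control, four-parameter fit, averaged over at least 2 experiments.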

Bcl-xL = biological target: T1, Bcl-xL (Homo sapiens, UniProt Q07817); experiment: HCT116 Bcl-xL degradation, capillary-based immunoassay (WES); details: for remaining activity at 0.01 µM / remaining activity at 0.1 µM: HCT-116, 24 h, % of untreated cells; for remaining activity at 0.01 µM: HCT116, 10 nM; for remaining activity at 0.1 µM: HCT116, 100 nM; for DC50: HCT116, 24 h, 9-point serial dilution
T1 construct: Measured levels of Bcl-xL protein of HCT116 cells treated with the tested compounds; host or cells: HCT116
T1 sequence (Q07817 whole entry): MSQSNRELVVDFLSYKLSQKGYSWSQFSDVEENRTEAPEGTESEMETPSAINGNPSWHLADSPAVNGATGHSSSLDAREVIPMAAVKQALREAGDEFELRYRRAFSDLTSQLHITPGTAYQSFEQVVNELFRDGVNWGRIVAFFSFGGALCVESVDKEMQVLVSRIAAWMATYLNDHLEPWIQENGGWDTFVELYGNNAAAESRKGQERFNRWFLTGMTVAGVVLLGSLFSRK
Summary of the method: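 Bcl-xL protein level by capillary WES immunoassay in HCT116 lysates, as % of untreated after cofilin normalization. Compound exposure was 24 h at 10 and 100 nM and/or a 9-point series, in quadruplicate. Four-parameter fitting gave the DC50.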

Q: What does the source list for CNCC#Cc1ccc(OCCCc2sc(N(CCCc3cn(CCOCCOCCOCCOCCOCCC(=O)N[C@H](C(=O)N4C[C@H](O)C[C@H]4C(=O)NCc4ccc(-c5scnc5C)cc4)C(C)(C)C)nn3)c3cc(C)c(Nc4nc5ccccc5s4)nn3)nc2C(=O)O)c(F)c1 [Example 29, 2-[[6-(1,3-benzothiazol-2-ylamino)-5-methyl-pyridazin-3-yl]-[3-[1-[2-[2-[2-[2-[2-[3-[[(1S)-1-[(2S,4R)-4-hydroxy-2-[[4-(4-methylthiazol-5-yl)phenyl]methylcarbamoyl]pyrrolidine-1-carbonyl]-2,2-dimethyl-propyl]amino]-3-oxo-propoxy]ethoxy]ethoxy]ethoxy]ethoxy]ethyl]triazol-4-yl]propyl]amino]-5-[3-[2-fluoro-4-[3-(methylamino)prop-1-ynyl]phenoxy]propyl]thiazole-4-carboxylic acid]?
A: IC50 (MOLT-4 cells [1]): 875 nM; IC50 (MOLT-4 cells [2]): 1630 nM; remaining activity at 0.01 µM (Bcl-xL): 64%; remaining activity at 0.1 µM (Bcl-xL): 67%

Q: What does the source list for Cc1cc(N(CCCCCn2cc(COCCOCCOCC(=O)Nc3cccc4c3CN(C3CCC(=O)NC3=O)C4=O)nn2)c2ccc(-c3cnn(CC45CC6(C)CC(C)(C4)CC(OCCN(C)C)(C6)C5)c3C)c(C(=O)O)n2)nnc1Nc1nc2ccccc2s1 (stereo not drawn) [Example 28, 6-[[6-(1,3-benzothiazol-2-ylamino)-5-methyl-pyridazin-3-yl]-[5-[4-[2-[2-[2-[[2-(2,6-dioxo-3-piperidyl)-1-oxo-isoindolin-4-yl]amino]-2-oxo-ethoxy]ethoxy]ethoxymethyl]triazol-1-yl]pentyl]amino]-3-[1-[[3-[2-(dimethylamino)ethoxy]-5,7-dimethyl-1-adamantyl]methyl]-5-methyl-pyrazol-4-yl]pyridine-2-carboxylic acid]?
A: IC50 (MOLT-4 cells [1]): 8.63 nM; remaining activity at 0.01 µM (Bcl-xL): 81%; remaining activity at 0.1 µM (Bcl-xL): 46%

Q: How did the IC50 (MOLT-4 cells [1]) turn out when Cc1c(Nc2nc3ccccc3s2)nnc2c1CCCN2c1ccc(-c2cnn(CC34CC5(C)CC(C)(C3)CC(OCCN(C)CCCCCCCCCCCCOc3ccc6c(c3)C(=O)N(C3CCC(=O)NC3=O)C6=O)(C5)C4)c2C)c(C(=O)O)n1 (stereo not drawn) [Example 140, 6-[3-(1,3-benzothiazol-2-ylamino)-4-methyl-6,7-dihydro-5H-pyrido[2,3-c]pyridazin-8-yl]-3-[1-[[3-[2-[12-[2-(2,6-dioxo-3-piperidyl)-1,3-dioxo-isoindolin-5-yl]oxydodecyl-methyl-amino]ethoxy]-5,7-dimethyl-1-adamantyl]methyl]-5-methyl-pyrazol-4-yl]pyridine-2-carboxylic acid] was run?
A: Its IC50 is 0.311 nM.

Q: What about the DC50 (Bcl-xL) of the same compound?
A: Its DC50 is 3.08 nM.

Q: What does the source list for Cc1ncsc1-c1ccc(CNC(=O)[C@@H]2C[C@@H](O)CN2C(=O)[C@@H](NC(=O)CCCC(=O)N2CCN(CC#Cc3ccc(OCCCc4sc(N5CCCc6c5nnc(Nc5nc7ccccc7s5)c6C)nc4C(=O)O)c(F)c3)CC2)C(C)(C)C)cc1 [Example 18, 2-[3-(1,3-benzothiazol-2-ylamino)-4-methyl-6,7-dihydro-5H-pyrido[2,3-c]pyridazin-8-yl]-5-[3-[2-fluoro-4-[3-[4-[5-[[(1S)-1-[(2S,4R)-4-hydroxy-2-[[4-(4-methylthiazol-5-yl)phenyl]methylcarbamoyl]pyrrolidine-1-carbonyl]-2,2-dimethyl-propyl]amino]-5-oxo-pentanoyl]piperazin-1-yl]prop-1-ynyl]phenoxy]propyl] thiazole-4-carboxylic acid]?
A: IC50 (MOLT-4 cells [1]): 2.72 nM; DC50 (Bcl-xL): 6.6 nM; remaining activity at 0.01 µM (Bcl-xL): 52%; remaining activity at 0.1 µM (Bcl-xL): 52%

Q: Which results are given for Cc1cc(N(CCCCCn2cc(COCCOCCOCCNc3cccc4c3C(=O)N(C3CCC(=O)NC3=O)C4=O)nn2)c2ccc(-c3cnn(C[C@@]45C[C@]6(C)C[C@](C)(C4)C[C@](OCCN(C)C)(C6)C5)c3C)c(C(=O)O)n2)nnc1Nc1nc2ccccc2s1 (stereo partly drawn) [Example 62, 6-[[6-(1,3-benzothiazol-2-ylamino)-5-methyl-pyridazin-3-yl]-[5-[4-[2-[2-[2-[[2-(2,6-dioxo-3-piperidyl)-1,3-dioxo-isoindolin-4-yl]amino]ethoxy]ethoxy]ethoxymethyl]triazol-1-yl]pentyl]amino]-3-[1-[[3-[2-(dimethylamino)ethoxy]-5,7-dimethyl-1-adamantyl]methyl]-5-methyl-pyrazol-4-yl]pyridine-2-carboxylic acid]?
A: IC50 (MOLT-4 cells [1]): 24.1 nM; DC50 (Bcl-xL): 13.6 nM; remaining activity at 0.01 µM (Bcl-xL): 47%; remaining activity at 0.1 µM (Bcl-xL): 7%

Q: Which results are given for Cc1cc(N(CCCCCn2cc(COCCOCCOCCNC(=O)COc3cccc4c3C(=O)N(C3CCC(=O)NC3=O)C4=O)nn2)c2ccc(-c3cnn(CC45CC6(C)CC(C)(C4)CC(OCCN(C)C)(C6)C5)c3C)c(C(=O)O)n2)nnc1Nc1nc2ccccc2s1 (stereo not drawn) [Example 63, 6-[[6-(1,3-benzothiazol-2-ylamino)-5-methyl-pyridazin-3-yl]-[5-[4-[2-[2-[2-[[2-[2-(2,6-dioxo-3-piperidyl)-1,3-dioxo-isoindolin-4-yl]oxyacetyl]amino]ethoxy]ethoxy]ethoxymethyl]triazol-1-yl]pentyl]amino]-3-[1-[[3-[2-(dimethylamino)ethoxy]-5,7-dimethyl-1-adamantyl]methyl]-5-methyl-pyrazol-4-yl]pyridine-2-carboxylic acid]?
A: IC50 (MOLT-4 cells [1]): 86.4 nM; DC50 (Bcl-xL): 53 nM; remaining activity at 0.01 µM (Bcl-xL): 61%; remaining activity at 0.1 µM (Bcl-xL): 39%

Q: Which IC50 (MOLT-4 cells [1]) does the source give for Cc1cc(N(CCCCCn2cc(COCCOCCOCCOCCNc3cccc4c3C(=O)N(C3CCC(=O)NC3=O)C4=O)nn2)c2ccc(-c3cnn(CC45CC6(C)CC(C)(C4)CC(OCCN(C)C)(C6)C5)c3C)c(C(=O)O)n2)nnc1Nc1nc2ccccc2s1 (stereo not drawn) [Example 153, 6-[[6-(1,3-benzothiazol-2-ylamino)-5-methyl-pyridazin-3-yl]-[5-[4-[2-[2-[2-[2-[[2-(2,6-dioxo-3-piperidyl)-1,3-dioxo-isoindolin-4-yl]amino]ethoxy]ethoxy]ethoxy]ethoxymethyl]triazol-1-yl]pentyl]amino]-3-[1-[[3-[2-(dimethylamino)ethoxy]-5,7-dimethyl-1-adamantyl]methyl]-5-methyl-pyrazol-4-yl]pyridine-2-carboxylic acid] here?
A: The IC50 was 27.5 nM.

Q: What about the remaining activity at 0.01 µM (Bcl-xL) of the same compound?
A: The remaining activity at 0.01 µM was 59%.

Q: And the remaining activity at 0.1 µM (Bcl-xL)?
A: The remaining activity at 0.1 µM was 40%.

Q: How did the IC50 (MOLT-4 cells [1]) turn out when CNCC#Cc1ccc(OCCCc2sc(N(CCCc3cn(CCOCCOCCOCCNC(=O)COc4cccc5c4C(=O)N(C4CCC(=O)NC4=O)C5=O)nn3)c3cc(C)c(Nc4nc5ccccc5s4)nn3)nc2C(=O)O)c(F)c1 (stereo not drawn) [Example 27, 2-[[6-(1,3-benzothiazol-2-ylamino)-5-methyl-pyridazin-3-yl]-[3-[1-[2-[2-[2-[2-[[2-[2-(2,6-dioxo-3-piperidyl)-1,3-dioxo-isoindolin-4-yl]oxyacetyl]amino]ethoxy]ethoxy]ethoxy]ethyl]triazol-4-yl]propyl]amino]-5-[3-[2-fluoro-4-[3-(methylamino)prop-1-ynyl]phenoxy]propyl]thiazole-4-carboxylic acid] was run?
A: The IC50 was 669 nM.

Q: And the remaining activity at 0.01 µM (Bcl-xL)?
A: Its remaining activity at 0.01 µM is 60%.

Q: What about the remaining activity at 0.1 µM (Bcl-xL) of the same compound?
A: The remaining activity at 0.1 µM was 49%.
